Test results reported in patent US20070225268A1, “METHOD TO TREAT NEOPLASMS VIA GADOLINIUM STEREOTACTIC SYNCHROTRON RADIATION” (priority 2005, published 2007).
“And” between values parts separate entries of the source, which are not always exact repeats. Equal entries are not always repeated.

Columns and labels:
[1] = test system: glioblastoma multiforme cell nuclei; assay: In vivo biodistribution of Gd-DTPA in glioblastoma multiforme patients (ICP-MS, spectromicroscopy); set-up: species or system human; conditions: six glioblastoma multiforme patients injected with Gd-DTPA before tumor excision
Excerpt: The present inventors also tested the in vivo biodistribution of Gd-DTPA in six glioblastoma multiforme patients injected with Gd-DTPA before tumor excision. The tumors were frozen and sectioned for ICP-MS and Microscope à Emission de Photoélectrons par Illumination Synchrotronique de Type Onduleur analysis. Evidence for Gd intracellular localization was found within the tumors in all six cases. However, the gadolinium localized in only 6.1% of the cell nuclei analyzed.

F98 brain glioma = conditions: intracranial infusion one day before 78.8 keV photons, 15 Gy single dose; cited from earlier work
TB10 cells [2] = assay: X-PEEM (SPHINX) spectromicroscopy of intranuclear Gd; format: cell-based, human
Protocol: (§1) Cell Culture and Exposure to Motexafin Gadolinium: Four well-established human glioblastoma multiforme cell lines were used for the in vitro studies: T98G (22), U87 (23), MO59K (24), and TB10 (9, 25). Cells were grown on precut 10 mm×10 mm silicon wafers (Silson, Northhampton, United Kingdom) for X-PEEM spectromicroscopy; on 1 mm×1 mm Si3N4 windows, 100 nm thick (Silson) for STXM spectromicroscopy; on tissue culture-treated polystyrene slides for confocal microscopy; and in Petri dishes for ICP-MS analysis. Subconfluent cultures were exposed to motexafin gadolinium (Pharmacyclics, Sunnyvale, Calif.), formulated at 2.3 mg/mL in 5% aqueous mannitol, and added to the culture medium to a final concentration of 100 μmol/L. Six different exposure times ranging from 0 to 72 hours were used for the ICP-MS time course measurements. For all microscopy experiments exposure times were kept constant at 72 hours. The cell appearance was not altered by motexafin gadolinium exposure.
(§2) After exposure to motexafin gadolinium, the cell cultures on Si substrates for X-PEEM analysis were washed three times with PBS solution to remove free Gd, fixed in 4% paraformaldehyde in PBS for 20 minutes, double-washed in Milli-Q-water, and air dried. At this point, some cell cultures were sputtered with 3-kV argon ions at 10^−5 Torr for 10 minutes; others were not. Sputtering removes the topmost portion of the cell to reveal the inner nuclear compartment of fixed cells (26). Sputtered and unsputtered cells were then ashed in UV/O3 for 140 hours (27). […]
X-PEEM Spectromicroscopy Analysis: X-PEEM spectromicroscopy analysis was done using the Spectromicroscope for Photoelectron Imaging of Nanostructures with X-rays (SPHINX) instrument (Elmitec GmbH, Clausthal, Germany), installed on the HERMON beamline at the Synchrotron Radiation Center (Madison, Wis.). […] Cell and tissue ashing increases gadolinium concentration by a factor of 10; therefore, the detection limit was on the order of ≦100 ppm in all cells analyzed. […]

MO59K cells = assay: STXM spectromicroscopy of intranuclear Gd; format: cell-based, human; conditions: 27 MO59K cells, 100 μmol/L, 72 hours
Protocol: as §1
as §2, with “(27). Parallel cultures were run and treated identically for ICP-MS measurements of the bulk Gd concentration. Cell cultures for STXM analysis on Si3N4 windows, after motexafin gadolinium exposure, were washed, fixed, washed, and air-dried.” for “(27).”
(§3) STXM Spectromicroscopy Analysis: The STXM instrument on beamline 11.0.2 at the Advanced Light Source in Berkeley uses an undulator source and is optimized for the Gd3d absorption energy. […] Three cell cultures were analyzed, containing 34 T98G cells, 27 MO59K cells, and 139 TB10 cells, respectively. […]

T98G cells = assay: STXM spectromicroscopy of intranuclear Gd; format: cell-based, human; conditions: 34 T98G cells, 100 μmol/L, 72 hours
Protocol: as §1
as §2, with “(27). Parallel cultures were run and treated identically for ICP-MS measurements of the bulk Gd concentration. Cell cultures for STXM analysis on Si3N4 windows, after motexafin gadolinium exposure, were washed, fixed, washed, and air-dried.” for “(27).”
as §3

TB10 cells [3] = assay: STXM spectromicroscopy of intranuclear Gd; format: cell-based, human; conditions: 139 TB10 cells, 100 μmol/L, 72 hours
Protocol: as §1
as §2, with “(27). Parallel cultures were run and treated identically for ICP-MS measurements of the bulk Gd concentration. Cell cultures for STXM analysis on Si3N4 windows, after motexafin gadolinium exposure, were washed, fixed, washed, and air-dried.” for “(27).”
as §3

[4] = test system: T98G, MO59K and TB10 cells; assay: STXM spectromicroscopy of intranuclear Gd, all cells analyzed; format: cell-based, human; conditions: overall, n=200
Protocol: as §1, with “exposure. […]” for “exposure.”
as §3

[5] = test system: TB10, MO59K and T98G cells; assay: Confocal fluorescence microscopy of motexafin gadolinium-related fluorescence; format: cell-based, human; conditions: n=481, 100 μmol/L, 72 hours
Protocol: Cell Culture and Exposure to Motexafin Gadolinium: Four well-established human glioblastoma multiforme cell lines were used for the in vitro studies: T98G (22), U87 (23), MO59K (24), and TB10 (9, 25). Cells were grown on precut 10 mm×10 mm silicon wafers (Silson, Northhampton, United Kingdom) for X-PEEM spectromicroscopy; on 1 mm×1 mm Si3N4 windows, 100 nm thick (Silson) for STXM spectromicroscopy; on tissue culture-treated polystyrene slides for confocal microscopy; and in Petri dishes for ICP-MS analysis. […]
Confocal Microscopy: Three of the four cell lines (TB10, MO59K, and T98G) were analyzed using a Bio-Rad (Richmond, Calif.) MRC 1024ES confocal microscope. This instrument can simultaneously measure the fluorescence from three channels, with excitation wavelengths from the three lines of a krypton/argon laser and emission through three independent barrier filters. […]
The aperture was set for minimal optical section thickness, and laser power and photodetector gain were set to image cell fluorescence within the 8-bit grayscale range of the photodetector. Five consecutive optical sections were obtained vertically through the cells to verify that motexafin gadolinium fluorescence originated from the nucleus and not only from the cytoplasm above or below the nucleus.

[6] = ICP-MS of Gd in tissue and plasma of glioblastoma multiforme patients; format: in vivo, human
Protocol: Tissue samples from three glioblastoma multiforme patients were also analyzed with ICP-MS (Table 1). These were collected from glioblastoma multiforme tissue and plasma for patients 1 and 2, and from tumor necrotic and uninvolved brain areas for the postmortem patient 3. All gadolinium concentrations were normalized to the measured tissue weight and volume. […]

[7] = test system: human glioblastoma multiforme cell lines; assay: Cell appearance after exposure in culture; format: cell-based; conditions: 100 μmol/L, up to 72 hours
Protocol: as §1

O=C([O-])CN(CCN(CC(=O)[O-])CC(=O)O)CCN(CC(=O)[O-])CC(=O)O.[Gd+3] [Gd-DTPA, gadolinium diethylenetriaminepentaacetic acid]
percentage of cell nuclei analyzed in which gadolinium localized [1]: 6.1%

N.N.[Cl][Pt][Cl] [cis-platinum]
survival rate at one year (F98 brain glioma): 34%

motexafin gadolinium
percentage of Gd-containing nuclei (TB10 cells [2]; TB10, after sputtering (72 cells)): 88%
percentage of Gd-containing nuclei (TB10 cells [2]; TB10, before sputtering (unsputtered, 108 cells)): 92%
percentage of cells with at least one gadolinium pixel in the nucleus (TB10 cells [2]; TB10, n=180, 100 μmol/L, 72 hours): 90%
percentage of cells containing gadolinium in their nuclei (MO59K cells): 96%
percentage of cells containing gadolinium in their nuclei (T98G cells): 90%
percentage of cells containing gadolinium in their nuclei (TB10 cells [3]): 88%
percentage of cells with at least one gadolinium pixel in their nuclei [4]: 90%
percentage of cells exhibiting motexafin gadolinium-related fluorescence in cytoplasm and nuclei [5]: 100%
[Gd] ([6]; Patient 1, Plasma, 2:30 hrs, single dose 10 mg/kg): 3.415 ppm
[Gd] ([6]; Patient 1, Plasma, 5 min, single dose 10 mg/kg): 12.973 ppm
[Gd] ([6]; Patient 1, Plasma, 45 min, single dose 10 mg/kg): 7.349 ppm
[Gd] ([6]; Patient 1, Plasma, 3 hrs, single dose 10 mg/kg): 4.079 ppm
[Gd] ([6]; Patient 1, Plasma, 24 hrs, single dose 10 mg/kg): 1.700 ppm
[Gd] ([6]; Patient 1, Tumor, 2:30 hrs, single dose 10 mg/kg): 7.266 ppm
[Gd] ([6]; Patient 1, Tumor, 3 hrs, single dose 10 mg/kg): 2.475 ppm
[Gd] ([6]; Patient 2, Plasma, 1:14 hrs, single dose 10 mg/kg): 6.536 ppm
[Gd] ([6]; Patient 2, Plasma, 1:30 hrs, single dose 10 mg/kg): 6.309 ppm
[Gd] ([6]; Patient 2, Plasma, 5 min, single dose 10 mg/kg): 14.043 ppm
[Gd] ([6]; Patient 2, Plasma, 45 min, single dose 10 mg/kg): 8.143 ppm
[Gd] ([6]; Patient 2, Plasma, 3 hrs, single dose 10 mg/kg): 5.109 ppm
[Gd] ([6]; Patient 2, Plasma, 24 hrs, single dose 10 mg/kg): 1.770 ppm
[Gd] ([6]; Patient 2, Tumor, 1:11 hrs, single dose 10 mg/kg): 29.728 ppm
[Gd] ([6]; Patient 2, Tumor, 1:18 hrs, single dose 10 mg/kg): 19.580 ppm
[Gd] ([6]; Patient 2, Tumor, 45 min, single dose 10 mg/kg): 22.589 ppm
[Gd] ([6]; Patient 3 (autopsy), Necrosis within tumor, 57 days after the last of multiple doses): 2.144 ppm
[Gd] ([6]; Patient 3 (autopsy), Tumor, 57 days after the last of multiple doses, listed as Motexafin-Gd): 8.542 ppm and 8.022 ppm
cell appearance [7]: not altered
